Broadly, the EC50 is the concentration giving half of the maximal effect.

Each structure is given as a SMILES string. Like-named read-outs stand apart in the source and are kept apart here.

Assay [1] deals with HCV replicon, genotype-1a variant with glutamine 30 changed to glutamate in the NS5A protein. The assay is classed as cell-based. From the text: The NS5A synergistic inhibitory effect of test compounds can be determined using various amounts of an NS5A-targeting compound with titration of a second compound of interest. […] In one embodiment, the HCV genotype strain can be genotype 1a containing a change at amino acid 30 of the NS5A protein consisting of glutamine to glutamate. The test compound can be chosen from compounds listed above or from others present in the literature.

Assay [2] concerns HCV replicon, genotype 1a Y93H variant with tyrosine 93 changed to histidine in the NS5A protein. The assay is classed as cell-based. The settings on record: BMS-790052 titrated with N47 fixed at 200 nM, genotype 1a Y93H. How it is done:
Combinations can be examined for synergistic activity using a variety of putative NS5A-targeting compounds and a variety of test compounds. […] The test compound can be chosen from compounds exemplified below, which were prepared by methods known in the art, or from others disclosed in the literature.
Similarly, BMS-790052 can be tested singly and in combination with a fixed amount of compound N47 in the HCV replicon cell based assay consisting of the genotype 1a Y93H variant with tyrosine 93 changed to histidine in the NS5A protein.

For assay [3], the system named is HCV replicon, genotype-1a variant with glutamine 30 changed to glutamate in the NS5A protein. The note with it: cited from earlier work; for EC50: genotype 1a Q30E replicon. Background: A replicon is a self-replicating genome or part of one, used to study replication in cells.
The subject of assay [4] is HCV replicon, genotype 1a L31V variant with leucine 31 changed to valine in the NS5A protein. The format is cell-based. The settings on record: BMS-790052 titrated with N47 fixed at 200 nM, genotype 1a L31V.
Where [5] appears, read: compound alone, read-out: EC50, titrated singly.
[6] abbreviates: ranking of synergist activity, test compound titrated with BMS-790052 fixed at 200 nM, genotype 1a Q30E replicon.

Take `COc1ccccc1C(O)C1(C(=O)N[C@H](c2nc(-c3ccc(-c4ccc(-c5c[nH]c([C@@H](NC(=O)C6(C(O)c7ccccc7OC)CC6)C(C)(C)C)n5)cc4)cc3)c[nH]2)C(C)(C)C)CC1` (single isomer, unassigned) [Compound N-135A]: the “Fold-Synergistic 1a (Q30E)” value in assay [1] is above 100.

As for `COc1ccccc1C(O)C1(C(=O)N[C@H](c2nc(-c3ccc(-c4ccc(-c5c[nH]c([C@@H](NC(=O)C6(C(O)c7ccccc7OC)CC6)C(C)(C)C)n5)cc4)cc3)c[nH]2)C(C)(C)C)CC1` (single isomer, unassigned) [Compound N-135B], the “Fold-Synergistic 1a (Q30E)” value in assay [1] was above 100. Still for that read-out and setting: in the case of `COc1ccccc1C(O)C1(C(=O)N[C@H](c2nc(-c3ccc(-c4ccc(-c5c[nH]c([C@@H](NC(=O)C6(C(O)c7ccccc7OC)CC6)C(C)(C)C)n5)cc4)cc3)c[nH]2)C(C)(C)C)CC1` (single isomer, unassigned) [Compound N-135C] it was above 100; in that of `COC(C)(CCO)C(=O)N[C@H](c1nc(-c2ccc(-c3ccc(-c4c[nH]c([C@@H](NC(=O)C(C)(CCO)OC)C(C)(C)C)n4)cc3)cc2)c[nH]1)C(C)(C)C` (single isomer, unassigned) [Compound W-258], above 100. Take `COC(C)(CCO)C(=O)N[C@H](c1nc(-c2ccc(-c3ccc(-c4cnc([C@@H](NC(=O)C(C)(CCO)OC)C(C)(C)C)[nH]4)cc3)cc2)c[nH]1)C(C)(C)C` (single isomer, unassigned) [Compound W-259]: in assay [1], the “Fold-Synergistic 1a (Q30E)” value is given as above 100. Take `COC(=O)N[C@H](C(=O)N1CCC[C@H]1c1ncc(-c2ccc(-c3ccc(-c4cnc([C@@H]5CCCN5C(=O)[C@@H](NC(=O)OC)C(C)C)[nH]4)cc3)cc2)[nH]1)C(C)C` [BMS-790052, reference compound]: the “synergistic inhibitory effect for the combination (fold)” value in assay [2] is given as above 100 fold. In addition, the “reciprocal synergistic inhibitory effect for the combination (fold)” value in assay [3] (BMS-790052 titrated with P-55 fixed at 200 nM, genotype 1a Q30E) is on record as around 100 fold. For the same compound, the EC50 in assay [3] (P-55 fixed at 200 nM, read-out: EC50 of BMS-790052 in the presence of a fixed amount of P-55) was around 2 nM; in assay [3] (setting [5]), around 200 nM. Also, the “synergistic inhibitory effect with the combination (fold)” value in assay [4] is given as above 100 fold.

Take `CC1([C@H](NC(=O)C2CCC(F)(F)CC2)c2cc3ccc(C#Cc4ccc5nc([C@@H](NC(=O)C6CCC(F)(F)CC6)C6(C)CC6)[nH]c5c4)cc3[nH]2)CC1` [Compound B67]: in assay [1], the “Fold-Synergistic 1a (Q30E)” value is above 100.

For `CC(C)CC(=O)N[C@H](c1ncc(-c2ccc(-c3ccc(-c4cnc([C@@H](NC(=O)CC(C)C)C(C)C)[nH]4)cc3)cc2)[nH]1)C(C)C` [Compound P-55], the “synergistic inhibitory effect with the combination (fold)” value in assay [3] (P-55 titrated with BMS-790052 fixed at 200 nM, genotype 1a Q30E) was above 100 fold. Moreover, the EC50 in assay [3] (BMS-790052 fixed at 200 nM, read-out: EC50 of P-55 in the presence of a fixed amount of BMS-790052) was around 2 nM; in assay [3] (setting [5]), above 200 nM. As to `O=C(C(=O)N1C(c2nc(-c3ccc(-c4ccc(-c5c[nH]c(C6C[C@@H]7C[C@@H]7N6C(=O)C(=O)N6CCC(F)(F)CC6)n5)cc4)cc3)c[nH]2)C[C@@H]2C[C@@H]21)N1CCC(F)(F)CC1` (some centres unmarked) [Compound W-243], the “Fold-Synergistic 1a (Q30E)” value in assay [1] was above 100.

As to `CCOC(=O)NC1(C(=O)N[C@H](c2nc(-c3ccc(-c4ccc(-c5c[nH]c([C@@H](NC(=O)C6(NC(=O)OCC)CCCCC6)C(C)(C)C)n5)cc4)cc3)c[nH]2)C(C)(C)C)CCCCC1` [Compound W-250], the “Fold-Synergistic 1a (Q30E)” value in assay [1] is above 100. Same read-out and setting: the value for `CC(C)(C)C(=O)NC(c1ncc(-c2ccc(-c3ccc(-c4cnc([C@@H](NC(=O)C(C)(C)C)C5(C)CCC5)[nH]4)cc3)cc2)[nH]1)C1(C)CCC1` (some centres unmarked) [Compound Y-39] was above 100. Regarding `CC(C)(C)C(=O)N[C@H](c1ncc(-c2ccc(-c3ccc(-c4cnc([C@@H](NC(=O)C(C)(C)C)C(C)(C)CF)[nH]4)cc3)cc2)[nH]1)C(C)(C)CF` [Compound Y-68], in assay [1] (setting [6]), the “Fold-Synergistic 1a (Q30E)” value is recorded as above 100.

On to `CC1([C@H](NC(=O)[C@]2(C)CCCC[C@@H]2O)c2ncc(-c3ccc(-c4ccc(-c5cnc([C@@H](NC(=O)[C@]6(C)CCCC[C@@H]6O)C6(C)CC6)[nH]5)cc4)cc3)[nH]2)CC1` [Compound Y-116], for which the “Fold-Synergistic 1a (Q30E)” value in assay [1] is listed as above 100.

Turning to `COC(c1ccccc1)C1(C(=O)N[C@H](c2nc(-c3ccc(-c4ccc(-c5c[nH]c([C@@H](NC(=O)C6(C(OC)c7ccccc7)CC6)C(C)(C)C)n5)cc4)cc3)c[nH]2)C(C)(C)C)CC1` (some centres unmarked) [Example N-137], the “Fold-Synergistic 1a (Q30E)” value in assay [1] (setting [6]) is listed as below 10.

(Values after US9770439B2, “Hepatitis C virus inhibitors” (priority 2013, dated 2017).)
